Data as given in patent US11033535B2, “Oxadiazoles and thiadiazoles as TGF-β inhibitors” (Southern Research Institute, priority 2017, dated 2021).

Target: (Homo sapiens, UniProt P07996)
Test: Secondary Assay, inhibitory activity of thiadiazole and oxadiazole analogs as TGF-beta inhibitors
Assay type: biochemical
Conditions: Table I
Protocol: A summary of the inhibitory activity of representative thiadiazole analogs (Tables i and ii) and oxadiazole analogs (Table ii) is shown below.
For initial screening, an ELISA-based screening assay was used in which purified human platelet TSP-1 was incubated with compounds and then incubated with recombinant latent TGF-β1 (purchased from R&D Systems). Activity is measured in a commercially available ELISA which detects only active TGF-β (R &D Systems). Activity in the presence of compounds is compared to activity in TSP-1+latent TGF-β samples without inhibitory compounds (Lu et al. (2016) Am J Pathol 186:678-690).
To specifically assess activity of compounds in liver cell specific assays, two different assays were used. In the first, human hepatic stellate cells were incubated overnight in low serum media to condition the media with secreted latent TGF-β. Purified TSP1 either pre-incubated with compounds or not will be added to cultures and then conditioned media harvested to assess TGF-β biological activity using the R&D Systems ELISA as above. Hepatic stellate cells will be purchased from commercial sources. Although hepatic stellate cells are the primary drivers of liver fibrosis, conditions which drive liver fibrosis can induce hepatocyte TSP-1 expression which can then have paracrine effects on controlling TGF-β activation in hepatic stellate cells. Furthermore, TGF-β can negatively impact hepatocyte regeneration following injury. Therefore, the ability of compounds to block TSP-1 activation of latent TGF-β will also be assessed in cultured primary human hepatocytes following the protocol described for the hepatic stellate cells. Similar approaches have successfully been used to screen compounds which inhibit human myeloma cell derived latent TGF-β activation by TSP-1 (Lu et al. (2016) Am J Pathol 186:678-690).

Chain of (Homo sapiens, UniProt P07996) (P07996 whole entry): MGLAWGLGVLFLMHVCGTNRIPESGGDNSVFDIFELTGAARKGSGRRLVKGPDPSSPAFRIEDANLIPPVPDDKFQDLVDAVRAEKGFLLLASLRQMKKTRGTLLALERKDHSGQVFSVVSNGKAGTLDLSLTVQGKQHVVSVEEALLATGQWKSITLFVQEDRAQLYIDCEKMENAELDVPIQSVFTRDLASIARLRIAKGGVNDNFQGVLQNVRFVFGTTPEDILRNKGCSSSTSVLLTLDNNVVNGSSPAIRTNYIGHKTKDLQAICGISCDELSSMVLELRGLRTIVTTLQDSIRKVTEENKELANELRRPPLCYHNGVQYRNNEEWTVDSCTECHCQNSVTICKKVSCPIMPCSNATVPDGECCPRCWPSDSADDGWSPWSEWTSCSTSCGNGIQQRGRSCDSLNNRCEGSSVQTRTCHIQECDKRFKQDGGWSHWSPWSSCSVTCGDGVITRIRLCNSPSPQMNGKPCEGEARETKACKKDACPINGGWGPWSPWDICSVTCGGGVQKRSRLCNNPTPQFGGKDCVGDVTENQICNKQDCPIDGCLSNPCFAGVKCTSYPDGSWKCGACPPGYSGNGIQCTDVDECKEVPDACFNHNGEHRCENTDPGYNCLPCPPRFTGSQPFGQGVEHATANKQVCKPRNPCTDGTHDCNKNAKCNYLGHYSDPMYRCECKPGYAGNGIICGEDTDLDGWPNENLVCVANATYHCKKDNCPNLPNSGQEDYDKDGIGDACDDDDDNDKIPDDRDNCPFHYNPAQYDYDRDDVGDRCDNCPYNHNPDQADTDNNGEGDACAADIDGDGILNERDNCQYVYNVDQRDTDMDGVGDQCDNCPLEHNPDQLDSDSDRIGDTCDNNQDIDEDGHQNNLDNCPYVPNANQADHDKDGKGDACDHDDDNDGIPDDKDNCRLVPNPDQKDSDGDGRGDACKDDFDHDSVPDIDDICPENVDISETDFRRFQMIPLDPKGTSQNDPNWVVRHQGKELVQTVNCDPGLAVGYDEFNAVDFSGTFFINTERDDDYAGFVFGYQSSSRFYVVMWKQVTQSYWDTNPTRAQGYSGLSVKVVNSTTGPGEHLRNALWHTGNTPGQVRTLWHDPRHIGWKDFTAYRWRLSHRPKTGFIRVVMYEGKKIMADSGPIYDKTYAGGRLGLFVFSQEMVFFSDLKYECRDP

SMILES	IC50
CNCc1ccc(C[C@H](NC(C)=O)c2nnc(-c3cccc(OC(F)(F)F)c3)s2)cc1 [Compound 42140, N-(2-(4-((methylamino)methyl)phenyl)-1-(5-(3-(trifluoromethoxy)phenyl)-1,3,4-thiadiazol-2-yl)ethyl)acetamide]	0.051 µM
CC(=O)N[C@@H](Cc1ccc(CN(C)C)cc1)c1nnc(-c2cccc(OC(F)(F)F)c2)s1 [Compound 42320, N-(2-(4-((dimethylamino)methyl)phenyl)-1-(5-(3-(trifluoromethoxy)phenyl)-1,3,4-thiadiazol-2-yl)ethyl)acetamide]	0.002 µM
